The source of these data is paper PMC2364952, “The Anti-Inflammatory Activity of Boron Derivatives in Rodents” (Metal-Based Drugs, 1995).

One assay addresses acid phosphatase. Kind of assay: Acid phosphatase activity, mouse macrophages. In kind it is cell-based, mouse (J774 macrophages). Particulars: Table 3; read-out: IC50 Acid Phosphatase, Mouse Macrophage.
Assay [1] concerns the target elastase. Kind of assay: Elastase activity, mouse macrophages. Particulars: Table 5; read-out: IC50 Elastase, Mouse Macrophage. In kind it is cell-based, mouse (J774 macrophages).
The subject of assay [2] is acetic acid induced stretch reflex. Kind of assay: Local analgesic screen (acetic acid writhing). In kind it is in vivo, CF1 mice. Particulars: for Mice Writhing Reflex: 8 mg/kg I.P., Table 2; for reduction of the reflex action: mice, acetic acid induced local pain, 8 mg/kg. In general terms: Writhing tests count abdominal constrictions after an irritant is injected.
For another assay, the system named is cathepsin. Nature of the assay: Cathepsin activity, mouse macrophages. Particulars: Table 3; read-out: IC50 Cathepsin, Mouse Macrophage. In kind it is cell-based, mouse (J774 macrophages).
Assay [3] concerns trypsin. Kind of assay: Trypsin proteolytic activity, mouse macrophages. It counts as cell-based, mouse (J774 macrophages). Particulars: Table 5; read-out: IC50 Trypsin, Mouse Macrophage.
Assay [4] concerns trypsin. Nature of the assay: Trypsin activity, UMR-106 osteosarcoma cells. It counts as cell-based. Particulars: Table 6; read-out: IC50 Trypsin, Rat UMR-106 Bone Osteosarcoma.
Assay [5] has as its system carrageenan-induced inflammation of hind foot. Nature of the assay: Carrageenan-induced foot edema, mice. Particulars: for reduction of induced edema: mice, 8 mg/kg x 2, I.P., carrageenan. It counts as in vivo, CF1 male mice. In general terms: The carrageenan paw model is a standard test of acute inflammation.
For a further assay, the target named is aryl sulphatase. Kind of assay: Aryl sulfatase activity, mouse macrophages. It counts as cell-based, mouse (J774 macrophages). Particulars: Table 3; read-out: IC50 Aryl Sulfatase, Mouse Macrophage.
Assay [6] relates to carrageenan-induced inflammation of paw. Nature of the assay: Carrageenan-induced paw edema, rats.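 Note: paw weight increase as percent of control rats.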 Particulars: 8 mg/kg x 2, I.P., Table 2. In kind it is in vivo, Sprague Dawley male rats.
Assay [7] concerns the target prostaglandin cyclooxygenase. Nature of the assay: Prostaglandin cyclooxygenase activity, macrophages. In kind it is cell-based, mouse (J774 macrophages). Particulars: Table 7.
The test system of assay [8] is elastase. Nature of the assay: Elastase activity, UMR-106 osteosarcoma cells. Particulars: Table 6; read-out: IC50 Elastase, Rat UMR-106 Bone Osteosarcoma. In kind it is cell-based.
The subject of a further assay is neutral cathepsin. Nature of the assay: Cathepsin activity, UMR-106 osteosarcoma cells. Particulars: Table 6; read-out: IC50 Neutral Cathepsin, Rat UMR-106 Bone Osteosarcoma. In kind it is cell-based.
Assay [9] concerns adjuvant (M. butyricum) arthritis. Nature of the assay: Chronic adjuvant arthritic screen. In kind it is in vivo. Particulars: rats; for Rat Chronic Arthritis: 8 mg/kg/day I.P., Day 3 to Day 21, Table 2.
The subject of assay [10] is carrageenan-induced pleural fluid. Kind of assay: Anti-pleurisy screen.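 Note: Pleural fluid volume as percent of control rats.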 It counts as in vivo, Sprague Dawley male rats. Particulars: rats, 8 mg/kg I.P., 1 h before and 3 h after carrageenan; Table 2.

Consider `CC[N+]#C[BH2-][N+](C)(C)C.F[B-](F)(F)F` [Compound 74], for which the IC50 – broadly, the midpoint of a concentration-inhibition curve – on acid phosphatase is 1.31 µM; at elastase [1] it was 2.32 µM; with cathepsin, 9.13 µM; in the assay with trypsin [3], 1.83 µM; with trypsin [4], 10.5 µM; at aryl sulphatase, 6.03 µM. Further, the IC50 in [7] is 1.52 µM; in the assay with elastase [8], 10 µM; with neutral cathepsin, 6.55 µM. The “Mice Writhing Reflex” value in assay [2] was 40 % of control. Moreover, the “reduction of the reflex action” value in [2] is on record as “at least 45%”. For the same compound, the “reduction of induced edema” value in assay [5] is listed as “at least 40%”. Besides, the “Rat Inflammatory” value in assay [6] is given as 81 % of control.

Consider `COc1ccc2c(c1)c(CC(=O)O)c(C)n2C(=O)c1ccc(Cl)cc1` [Indomethacin, indomethacin, reference compound], for which, in assay [2], the “Mice Writhing Reflex” value is given as 43 % of control. Besides, in assay [5] (standards at their therapeutic dose (indomethacin 8 mg/kg x 2, pentoxifylline and phenylbutazone 50 mg/kg x 2)), the “inhibition of induced inflammation” value was found to be 26%. For the same compound, the “Rat Inflammatory” value in assay [6] was 78 % of control. For the same compound, the “Rat Chronic Arthritis” value in assay [9] was 55 % of control. Moreover, the “Rat Pleurisy” value in assay [10] is 12 % of control.

Take `C[N+](C)([BH2-]C(=O)O)CC[N+](C)(C)[BH2-]C(=O)O` [Compound 7]: the IC50 on acid phosphatase is 3.32 µM; on elastase [1], 2.76 µM; in the assay with cathepsin it was 8.37 µM; with trypsin [3], 2.33 µM; in assay [7], 1.85 µM. Further, the “Mice Writhing Reflex” value in assay [2] is recorded as 55 % of control. Moreover, the “reduction of the reflex action” value in assay [2] was “at least 45%”. In addition, in [9] (8 mg/kg/day), the reduction of pannus result is given as “greater than 75%”. Moreover, the “Rat Chronic Arthritis” value in assay [9] is reported as 24 % of control.

Take `[BH3-][NH2+]C(C)(C)C` [Compound 1]: the IC50 on acid phosphatase came to 8.08 µM; at elastase [1], 0.22 µM; in the assay with cathepsin, 4.62 µM; in the assay with trypsin [3], 2.09 µM; in the assay with trypsin [4], 7.74 µM; in [7], 4.19 µM. Moreover, the IC50 is 9.26 µM in the assay with elastase [8] and 4.67 µM in the assay with neutral cathepsin. For the same compound, in assay [2], the “Mice Writhing Reflex” value is on record as 19 % of control. Besides, in assay [2], the “reduction of the reflex action” value worked out at 80%.

With `CCCCCCCCCCCCCCCC[N+](C)(C)[BH2-]C#N` [Compound 35], the IC50 worked out at 0.33 µM on acid phosphatase; 2.75 µM on elastase [1]; 4.97 µM with cathepsin; 2.69 µM with trypsin [3]; 7.28 µM with trypsin [4]; 7.16 µM at aryl sulphatase. The IC50 amounted to 9.19 µM in the assay on elastase [8] and 6.31 µM in the assay with neutral cathepsin. Further, the “Mice Writhing Reflex” value in assay [2] is reported as 16 % of control. Also, in assay [2], the “reduction of the reflex action” value stood at 80%.

As to `O=C(O)[BH2-][NH+]1CCOCC1` [Compound 83], the IC50 on acid phosphatase is 0.16 µM; at elastase [1], 0.96 µM; in the assay on cathepsin, 1.76 µM; with trypsin [3], 2.37 µM; with trypsin [4] it was 9.89 µM; on aryl sulphatase it was 7.59 µM. For the same compound, the 50% inhibitory concentration (IC50) with elastase [8] was determined as 8.09 µM; in the assay on neutral cathepsin it was 5.41 µM. For the same compound, the “reduction of induced edema” value in [5] is listed as “at least 30%”.

As for `[BH3-][NH+]1CCOCC1` [Compound 78], the IC50 worked out at 3.18 µM on acid phosphatase; 5.94 µM on elastase [1]; 0.76 µM with cathepsin; 2.39 µM in the assay with trypsin [3]; 1.47 µM in [7]. For the same compound, the “Mice Writhing Reflex” value in [2] is 15 % of control. For the same compound, the “reduction of the reflex action” value in assay [2] came out at 80%. Further, in assay [5], the “reduction of induced edema” value is 45%. Also, the “Rat Inflammatory” value in assay [6] is listed as 83 % of control. In assay [9] (8 mg/kg/day), the “activity in chronic arthritis screen” value is given as “significantly active”. The “Rat Chronic Arthritis” value in [9] is recorded as 33 % of control.
